9 compounds from ChEMBL document CHEMBL1157993, “Structure-antimutagenic activity relationship study of plicatin B” (J Nat Prod, 1999) can be followed below.

Series [1] concerns Salmonella typhimurium. Kind of series: Antimutagenic activity in Salmonella Typhimurium TA100 assessed as inhibition of ethyl methanesulfonate-induced mutation at 7.8 uM treated for 30 mins and measured after 2 days by modified Ames test. The class given is functional, Salmonella enterica subsp. enterica serovar Typhimurium. Particulars: Salmonella enterica. (The Ames test detects mutagens through reverse mutation in bacteria.)

For series [2], the system named is Salmonella typhimurium. Kind of series: Antimutagenic activity in Salmonella Typhimurium TA100 assessed as inhibition of ethyl methanesulfonate-induced mutation at 31.3 uM treated for 30 mins and measured after 2 days by modified Ames test. The class given is functional, Salmonella enterica subsp. enterica serovar Typhimurium. Particulars: Salmonella enterica.

Series [3] has as its system Salmonella typhimurium. Kind of series: Antimutagenic activity in Salmonella Typhimurium TA100 assessed as inhibition of ethyl methanesulfonate-induced mutation at 3.9 uM treated for 30 mins and measured after 2 days by modified Ames test. The class given is functional, Salmonella enterica subsp. enterica serovar Typhimurium. The conditions noted are these: Salmonella enterica.

Series [4] is described as follows: Cytotoxicity against Salmonella Typhimurium TA100 assessed as maximun non-toxic concentrations after 15 hrs […]. The class given is organism-based. The conditions noted are these: salmonella enterica subsp. enterica serovar typhimurium, Salmonella Typhimurium TA100 cells; read-out: Activity. For orientation: An ELISA detects its analyte on a solid surface through an enzyme-linked reagent.

In series [5] the test system is Salmonella typhimurium. Nature of the series: Antimutagenic activity in Salmonella Typhimurium TA100 assessed as inhibition of ethyl methanesulfonate-induced mutation at 3.9 to 125 uM treated for 30 mins and measured after 2 days by modified Ames test. Format: functional, Salmonella enterica subsp. enterica serovar Typhimurium.
The subject of series [6] is Salmonella typhimurium. Nature of the series: Antimutagenic activity in Salmonella Typhimurium TA100 assessed as inhibition of ethyl methanesulfonate-induced mutation at 25 ug/mL treated for 30 mins and measured after 2 days by modified Ames test. The class given is functional, Salmonella enterica subsp. enterica serovar Typhimurium. Particulars: Salmonella enterica.

Series [7] deals with Salmonella typhimurium. Kind of series: Antimutagenic activity in Salmonella Typhimurium TA100 assessed as inhibition of ethyl methanesulfonate-induced mutation at 125 uM treated for 30 mins and measured after 2 days by modified Ames test. The class given is functional, Salmonella enterica subsp. enterica serovar Typhimurium. Particulars: Salmonella enterica.
The subject of series [8] is Salmonella typhimurium. Kind of series: Antimutagenic activity in Salmonella Typhimurium TA100 assessed as inhibition of ethyl methanesulfonate-induced mutation at 15.6 ug/mL treated for 30 mins and measured after 2 days by modified Ames test. Format: functional, Salmonella enterica subsp. enterica serovar Typhimurium. Particulars: Salmonella enterica.
The test system of series [9] is Salmonella typhimurium. Kind of series: Antimutagenic activity in Salmonella Typhimurium TA100 assessed as inhibition of ethyl methanesulfonate-induced mutation at 82.5 uM treated for 30 mins and measured after 2 days by modified Ames test. The class given is functional, Salmonella enterica subsp. enterica serovar Typhimurium. The conditions noted are these: Salmonella enterica.

Regarding `CC(C)=CCc1cc(/C=C/CO)ccc1O`, in series [1], the inhibition (as a rule, the change of the read-out against control, counted positive when it falls) at 7.8 µM amounted to 27.1%. In addition, in series [2], the inhibition at 31.3 µM turned out to be 36.8%. Besides, the inhibition at 3.9 µM in [3] is 20.2%.
For the compound `COC(=O)CCc1ccc(O)c(CC=C(C)C)c1`, the inhibition at 7.8 µM in series [1] turned out to be 38.5%. Further, the inhibition at 31.3 µM in series [2] stood at 46.8%. The MNTC at 15 h in series [4] was 31.3 µM. In series [3], the inhibition at 3.9 µM was 25.2%.
Turning to `COC(=O)CCc1ccc(O)cc1` [4-HYDROXYHYDROCINNAMIC ACID METHYL ESTER], the “inhibition (INH)” value in series [5] was found to be 0%.
Regarding `O=C/C=C/c1ccccc1` [CINNAMALDEHYDE], in series [4], the MNTC at 15 h worked out at 25 µg/mL. Besides, the inhibition at 25 µg/mL in series [6] is 30%.
Consider `O=C(O)/C=C/c1ccc(O)cc1` [COUMARIC ACID], for which, in series [1], the inhibition at 7.8 µM came to 13.6%. Moreover, the inhibition at 3.9 µM in series [3] was 11.2%. Further, in series [7], the inhibition at 125 µM turned out to be 49.8%.
With `CC(C)=CCc1cc(/C=C/C(=O)O)ccc1O` [DRUPANIN], the inhibition at 7.8 µM in series [1] came out at 0.6%. For the same compound, in series [8], the inhibition at 15.6 µg/mL came to 12%. Besides, the inhibition at 3.9 µM in series [3] was 0.3%.
Regarding `COC(=O)/C=C/c1ccc(O)cc1` [METHYL P-HYDROXYCINNAMATE], the inhibition at 7.8 µM in series [1] was found to be 0.9%. Besides, in [9], the inhibition at 82.5 µM amounted to 7.6%. Also, the inhibition at 3.9 µM in series [3] is 0%.
`COC(=O)/C=C/c1ccc(OC)c(CC=C(C)C)c1` [PALICATIN B METHYL ETHER]: the inhibition at 7.8 µM in [1] worked out at 21.5%. In addition, the inhibition at 3.9 µM in [3] turned out to be 13.2%.
In the same order, the values of `COC(=O)/C=C/c1ccc(O)c(CC=C(C)C)c1` [PLICATIN B] are 30.2% and 25.4%.
